Residues, ends and D or L forms follow the SMILES beside them.
Tests used:
[1] = test system: p-IRS-1; test: Neuronal insulin resistance (p-IRS-1) in mouse brain, immunoblot; assay type: in vivo; settings: AβO-treated, APP/PS1, Adipo−/− and HFD mice, 5 μg/g, i.p., alternating days for 45 days
Experimental: (§1) Os-pep was dissolved in double-deionized distilled water and then prepared in normal saline to obtain the final administered concentration. The AβO, APP/PS1, Adipo^−/− and WT mice were injected i.p. with Os-pep at a dosage of 5 μg/g on alternating days for 45 days. WT, Veh-injected transgenic-APP/PS1 and Adipo^−/− mice were injected with the same volume of double-deionized water and normal saline. The WT control and sham mice as well as the Veh-injected AβO, APP/PS1, Adipo^−/− and HFD mice received the same volume of double-deionized distilled water or normal saline.
(§2) The protein concentrations of the homogenates of mouse brain tissue and cell lysates in vitro were measured using a Bio-Rad protein assay kit (Bio-Rad Laboratories, Hercules, CA), and immunoblotting was performed as we previously described, using primary antibodies (detailed information described in the supplementary Table 1). Western blotting membranes have been cut prior to original western blot images and original western blot images are available at supplementary material.
A separate cohort of animals was used to develop the HFD mouse model. Eight-week-old C57BL/6N male mice were bought from Samtako Bio (Republic of Korea). Mice were housed in the university animal housing facility under a 12 h/12 h light/dark cycle at 23°C and 60 ± 10% humidity, with food and water available ad libitum. […]

[2] = test system: AdipoR1/p-AMPK signaling; test: AdipoR1/p-AMPK signaling in mouse brain (immunoblot); assay type: in vivo; settings: 5 μg/g, i.p., alternating days for 45 days
Experimental: as §1, §2

[3] = test system: p-PI3K/Akt/GSK3β (Ser 9); test: Downstream insulin signaling in mouse brain, immunoblot; assay type: in vivo; settings: AβO-treated, APP/PS1 and Adipo−/− mice, 5 μg/g, i.p., alternating days for 45 days
Experimental: as §1, §2

[4] = test system: hippocampal pyramidal neuronal cells; test: Golgi staining, dendritic complexity and spine density of hippocampal CA1 pyramidal neurons; assay type: in vivo, mouse; settings: Adipo−/− and AβO mice
Source text: In a separate cohort of studies, we performed Golgi staining and morphological analysis of hippocampal pyramidal neuronal cells and were investigated as accordingly our previous protocol.

[5] = test system: WT C57BL/6 N mice; assay type: in vivo, mouse; settings: i.p. bolus 10, 20, 30, 40 and 50 mg/kg, observed 1 week, n = 5/group, data not shown
Experimental: To optimize and analyze the toxicity and effective dose of Os-pep, we performed a separate group of studies using wild-type (WT) male C57BL/6 N mice to examine the toxicity of Os-pep in vivo. The WT mice were rearranged into 5 groups (n = 5 mice/group). Os-pep was administered in bolus dosages of 10, 20, 30, 40 and 50 mg/kg in normal saline to the respective groups, and the Veh-injected mice received the same amount of normal saline as WT mice. We checked for signs of systemic toxicity, such as head tilt, tremor, abnormal physical activity and squinting, for 1 week in WT mice that had been treated with i.p. bolus doses of Os-pep (10, 20, 30, 40 and 50 mg/kg).
To optimize and analyze the toxicity and effective dose of Os-pep, we performed a separate group of studies in order to assess signs of systemic toxicity, such as head tilt, tremor, changes in physical activity and squinting, for 1 week in normal WT mice injected i.p. with bolus doses of Os-pep (10, 20, 30, 40 and 50 mg/kg) to investigate the safety profile of bolus doses of Os-pep.

[6] = test system: spatial working memory; test: Y-maze test; assay type: in vivo, mouse; settings: AβO-injected, APP/PS1 and Adipo−/− mice, n = 13/group
Experimental: To evaluate the learning and memory functions of the mice, we performed the Morris water maze (MWM) and Y-maze tests. After completion of the Os-pep dosage regimen, behavioral studies were performed on AβO-injected, AβO-injected and scramble and functional AdipoR1 shRNA-treated, APP/PS1 and Adipo^−/− mice (n = 13/group) using the MWM and Y-maze tests. […] The mice were randomly selected, and the operators were unaware of the genotype and treatment details for the behavioral study. The MWM and Y-maze tests were performed as previously described.

[7] = test system: p-IRS-1 and p-PI3K/Akt/GSK3β (Ser 9) pathways; test: Insulin resistance and downstream insulin signaling in APPswe/ind-overexpressing SH-SY5Y cells, immunoblot; assay type: cell-based, human; settings: Os-pep 10 μM
Experimental: Human neuroblastoma SH-SY5Y cells were seeded (in 6-well culture plates for immunoblotting and in chamber slides for immunofluorescence) in DMEM (Dulbecco’s modified Eagle medium) containing 10% fetal bovine serum (FBS) and 1% antibiotics (penicillin-streptomycin) and incubated at 37 °C in humidified air containing 5% CO2. Once the cells reached 70–80% confluence, the cells were transfected using the pCAX vector containing the APPswe/ind gene using Lipofectamine 3000 (Life Technologies) according to the provider’s protocols. AdipoR1 siRNA (h) (SC-60123) and AMPK siRNA (h) (SC-45312) (Santa Cruz Biotechnology, Inc.) were used at a concentration of 10 μM per transfection and expressed for 72 h according to the manufacturer’s protocol (Santa Cruz Biotechnology, Inc.). A negative siRNA (Ambion, Thermo Fisher Scientific) was used as a control. Seventy-two hours after the transfections, the cells were exposed to Os-pep (10 μM) for 12 h and then subjected to immunoblotting and immunofluorescence analyses.
Human neuroblastoma SH-SY5Y cells were treated with 1 µM of insulin for 48 h to produce intrinsic insulin-resistant human neuroblastoma (SH-SY5YIR) cells. After 48 h, SH-SY5YIR cells were overexpressed with human APPswe/ind and subjected with AdipoR1 siRNA which further exposed to 10 nM insulin, Os-pep (10 µM) or compound C (10 µM) for 12 h, and then cell lysates were collected and proceeded accordingly for immunoblotting and ELISA.

[8] = test system: activated caspase-3 and cleaved PARP-1; test: Apoptotic and neurodegenerative markers in APP/PS1 mouse brain, immunoblot; assay type: in vivo; settings: APP/PS1 mice, 5 μg/g, i.p., alternating days for 45 days, n = 8/group
Experimental: as §2

[9] = test system: pre- and postsynaptic protein markers; test: Pre- and postsynaptic protein markers in mouse brain, immunoblot; assay type: in vivo; settings: 5 μg/g, i.p., alternating days for 45 days
Experimental: as §1, §2

## C[C@@H](O)[C@H](NC(=O)[C@@H]1CCCN1C(=O)CNC(=O)[C@H](CS)NC(=O)[C@@H]1CCCN1C(=O)CNC(=O)[C@H](CCC(N)=O)NC(=O)[C@@H](NC(=O)[C@@H](N)CS)[C@@H](C)O)C(=O)O [Os-pep] (H-CTQGPCGPT-OH; N-terminus and C-terminus assumed)
[1]
  p-IRS-1 Ser636/312 levels: significantly reducing the increase
  p-IRS-1 Tyr 632 levels: significantly increasing
[2]; vs AβO-injected mice without Os-pep
  AdipoR1/p-AMPK signaling, AβO-injected mice: significantly increased AdipoR1/p-AMPK signaling
[2]; vs Veh-treated APP/PS1
  AdipoR1/p-AMPK signaling, APP/PS1 mice: remarkably increased AdipoR1/p-AMPK signaling
[2]; vs group without Os-pep
  AdipoR1/AMPK levels, Adipo−/− mice: significantly increased AdipoR1/AMPK levels
[3]
  p-PI3K/Akt/GSK3β (Ser 9) levels: reversed the reduction
[4]; 5 μg/g, i.p., alternating days for 45 days
  total dendritic length: significantly increased the total dendritic length
[4]; hippocampal CA1
  total number of spines and filopodia-like spines: significantly increased the total number of spines and the number of filopodia-like spines
[5]
  signs of systemic toxicity (head tilt, tremor, physical activity, squinting): no toxicity was observed
[6]
  percentage of spontaneous alternation behaviors: significantly increased
[7]; APPswe/ind SH-SY5YIR (insulin 1 μM), 12 h
  p-IRS-1 Tyr 632 and p-PI3K/Akt/GSK3β (Ser 9) in insulin-resistant cells: significantly activated
[7]; APPswe/ind-overexpressing SH-SY5Y, AdipoR1 siRNA
  p-IRS-1 Ser636/312 with AdipoR1 knockdown: did not downregulate
[7]; APPswe/ind-transfected SH-SY5Y, AMPK siRNA
  p-IRS-1 Tyr 632 and p-PI3K/Akt/GSK3β (Ser 9) with AMPK knockdown: did not upregulate
[8]
  activated caspase-3 and cleaved PARP-1 levels: significantly decreased
[9]; AβO-treated, APP/PS1 and Adipo−/− mice
  pre- and postsynaptic protein levels: remarkably increased
[9]; WT normal mice
  effects on pre- and postsynaptic markers, Os-pep alone: did not have any detrimental effects

Source: article PMC8042910, “Adiponectin-mimetic novel nonapeptide rescues aberrant neuronal metabolic-associated memory deficits in Alzheimer’s disease” (Molecular Neurodegeneration, 2021)
